Experimental findings from patent US7238813B2, “Chemical compounds” (Smithkline Beecham Corporation, priority 2000, dated 2007) are described below.

Each structure is given as a SMILES string.

This test deals with T1, GST-VEGFR2 (Homo sapiens, UniProt P35968).
T1 construct: GST-VEGFR2, baculovirus expressed recombinant constructs of the intracellular domains of human TIE2 tagged by GST; made in house
T1 sequence (P35968 786-1356 limits assumed): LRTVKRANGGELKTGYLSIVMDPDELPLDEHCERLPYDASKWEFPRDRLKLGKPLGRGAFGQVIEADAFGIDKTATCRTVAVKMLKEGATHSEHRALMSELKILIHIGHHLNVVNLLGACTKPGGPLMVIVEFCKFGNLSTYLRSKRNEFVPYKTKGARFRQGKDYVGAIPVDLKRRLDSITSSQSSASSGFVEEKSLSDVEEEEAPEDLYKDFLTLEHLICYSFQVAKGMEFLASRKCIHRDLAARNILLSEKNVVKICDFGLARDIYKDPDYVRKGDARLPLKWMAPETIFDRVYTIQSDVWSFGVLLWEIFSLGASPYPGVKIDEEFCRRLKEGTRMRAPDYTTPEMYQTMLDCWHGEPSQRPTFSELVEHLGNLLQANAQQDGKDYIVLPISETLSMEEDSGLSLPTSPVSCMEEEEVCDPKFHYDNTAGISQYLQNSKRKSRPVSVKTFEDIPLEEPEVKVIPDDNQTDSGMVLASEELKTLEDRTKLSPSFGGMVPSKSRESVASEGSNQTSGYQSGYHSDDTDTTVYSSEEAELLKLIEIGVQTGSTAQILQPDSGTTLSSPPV
The experiment in a line: VEGF-R2 enzyme assay (VEGF-E), LANCE method. It counts as biochemical. Conditions: 75 μM ATP. How it is done: VEGF-R2 Enzyme Assay (VEGF-E)
The VEGF enzyme assay used the LANCE method (Wallac) and GST-VEGFR2, baculovirus expressed recombinant constructs of the intracellular domains of human […] tagged by GST. […] The reaction was stopped by the addition of EDTA (final concentration 50 mM). Streptavidin linked-APC (allophycocyanin, Molecular Probe) and Europium-labeled anti-phosphorylated tyrosine antibody (Wallac) were then added at the final concentration of 15 nM and 1 nM, respectively. The APC signal was measured using an ARVO multilabel counter (Wallac Berthold, Japan). The percent inhibition of activity was calculated relative to blank control wells. The concentration of test compound that inhibits 50% of activity (IC50) was interpolated using nonlinear regression (Levernberg-Marquardt) and the equation, y=Vmax (1−x/(K+x))+Y2, where “K” was equal to the IC50. The IC50 values were converted to pIC50 values, i.e., −log IC50 in Molar concentration.
On to `COC(=O)Nc1nc2cc(Oc3ccc(NC(=O)Nc4cc(C(C)(C)C)on4)cc3)ccc2[nH]1` [Example 128, Methyl N-(5-(4-((5-tert-butylisoxazole-3-yl)aminocarbonylamino)phenoxy)-1H-benzimidazol-2-yl)carbamate], for which the IC50 (usually the concentration that inhibits the measured activity by half) was less than 100 nM.
For `CCCCNC(=O)Nc1nc2ccc(Oc3ccc(NC(=O)Nc4cc(C(F)(F)F)ccc4F)cc3)cc2s1` [Example 137, 1-(6-(4-((2-Fluoro-5-(trifluoromethyl)phenyl)aminocarbonylamino)phenoxy)benzthiazol-2-yl)-3-(butyl)urea] the value was less than 100 nM.
For `COC(=O)Nc1nc2cc(Oc3cccc(NC(=O)Nc4ccc(Cl)cc4)c3)ccc2[nH]1` [Example 61, Methyl N-(5-(3-((4-chlorophenyl)aminocarbonylamino)phenoxy)-1H-benzimidazol-2-yl)carbamate] the value was less than 100 nM; for `COC(=O)Nc1nc2cc(Oc3cccc(NC(=O)Nc4ccccc4Oc4ccccc4)c3)ccc2[nH]1` [Example 124, Methyl N-(5-(3-((2-phenoxyphenyl)aminocarbonylamino)phenoxy)-1H-benzimidazol-2-yl)carbamate], less than 100 nM.
The figure for `COC(=O)Nc1nc2cc(Oc3cccc(NC(=O)Nc4ccccc4OC(F)(F)F)c3)ccc2[nH]1` [Example 116, Methyl N-(5-(3-((2-(trifluoromethoxy)phenyl)aminocarbonylamino)phenoxy)-1H-benzimidazol-2-yl)carbamate] is less than 100 nM.
Molecule `COC(=O)Nc1nc2cc(Oc3cccc(NC(=O)Nc4cccc(Oc5ccccc5)c4)c3)ccc2[nH]1` [Example 60, Methyl N-(5-(3-((3-(phenoxy)phenyl)aminocarbonylamino)phenoxy)-1H-benzimidazol-2-yl)carbamate] showed an IC50 of less than 100 nM.
`CCCCNC(=O)Nc1nc2ccc(Oc3ccc(NC(=O)Nc4ccc(Cl)c(C(F)(F)F)c4)cc3)cc2s1` [Example 136, 1-(6-(4-((4-Chloro-3-(trifluoromethyl)phenyl)aminocarbonylamino)phenoxy)benzthiazol-2-yl)-3-(butyl)urea] gave an IC50 of less than 100 nM.
For `COC(=O)Nc1nc2cc(Oc3cccc(NC(=O)Nc4ccc(Cl)c(C(F)(F)F)c4)c3)ccc2[nH]1` [Example 119, Methyl N-(5-(3-((4chloro-3-(trifluoromethyl)phenyl)aminocarbonylamino)phenoxy)-1H-benzimidazol-2-yl)carbamate] the value was less than 100 nM.
The figure for `O=C(Nc1ccc(Cl)cc1)Nc1nc2cc(Oc3ccc(NC(=O)Nc4cc(C(F)(F)F)ccc4F)cc3)ccc2[nH]1` [Example 134, 1-(5-(4-((2-Fluoro-5-(trifluoromethyl)phenyl)aminocarbonylamino)phenoxy)-1H-benzimidazol-2-yl)-3-(4-chlorophenyl)urea] is less than 100 nM; for `COC(=O)Nc1nc2cc(Oc3cccc(NC(=O)Nc4cccc(Br)c4)c3)ccc2[nH]1` [Example 59, Methyl N-(5-(3-((3-bromophenyl)aminocarbonylamino)phenoxy)-1H-benzimidazol-2-yl)carbamate] it is less than 100 nM.
The figure for `COC(=O)Nc1nc2cc(Oc3ccc(NC(=O)Nc4ccc5c(c4)CCC5)cc3)ccc2[nH]1` [Example 127, Methyl N-(5-(4-((5-indanyl)aminocarbonylamino)phenoxy)-1H-benzimidazol-2-yl)carbamate] is less than 100 nM; for `COC(=O)Nc1nc2cc(Oc3cccc(NC(=O)Nc4ccccc4C(F)(F)F)c3)ccc2[nH]1` [Example 118, Methyl N-(5-(3-((2-(trifluoromethyl)phenyl)aminocarbonylamino)phenoxy)-1H-benzimidazol-2-yl)carbamate] it is 100 to 1000 nM; for `COCCOCC(=O)Nc1nc2cc(Oc3ccc(NC(=O)Nc4nnc(N5CCOCC5)[nH]4)cc3)ccc2[nH]1` [Example 163, N-(5-(4-((5-Morpholino-1,3,4-triazol-2-yl)aminocarbonylamino)phenoxy)-1H-benzimidazol-2-yl)(2-(methoxy)ethoxy)acetamide] it is 1000 to 10000 nM.
Molecule `COC(=O)Nc1nc2ccc(C(=O)c3ccc(NC(=O)Nc4cc(C(F)(F)F)ccc4F)cc3)cc2[nH]1` [Example 78, Methyl N-(5-(4-((2-fluoro-5-(trifluoromethyl)phenyl)aminocarbonylamino)phenylcarbonyl)-1H-benzimidazol-2-yl)carbamate] displayed an IC50 of less than 100 nM.
For `O=C(Nc1ccc(Oc2ccc3[nH]c(NC(=O)Nc4cc(C(F)(F)F)ccc4F)nc3c2)cc1)Nc1cc(C(F)(F)F)ccc1F` [Example 133, 1-(5-(4-((2-Fluoro-5-(trifluoromethyl)phenyl)aminocarbonylamino)phenoxy)-1H-benzimidazol-2-yl)-3-(2-fluoro-5-(trifluoromethyl)phenyl)urea] the value was less than 100 nM; for `COC(=O)Nc1nc2cc(Oc3cccc(NC(=O)Nc4ccc(Oc5ccccc5)cc4)c3)ccc2[nH]1` [Example 125, Methyl N-(5-(3-((4-phenoxyphenyl)aminocarbonylamino)phenoxy)-1H-benzimidazol-2-yl)carbamate], less than 100 nM.
The molecule `COC(=O)Nc1nc2cc(Oc3cccc(NC(=O)Nc4cc(Cl)ccc4Cl)c3)ccc2[nH]1` [Example 121, Methyl N-(5-(3-((2,5-dichlorophenyl)aminocarbonylamino)phenoxy)-1H-benzimidazol-2-yl)carbamate] registered an IC50 of 100 to 1000 nM.
For `COC(=O)Nc1nc2cc(Oc3cccc(NC(=O)Nc4cc(C(C)(C)C)on4)c3)ccc2[nH]1` [Example 129, Methyl N-(5-(3-((5-tert-butylisoxazole-3-yl)aminocarbonylamino)phenoxy)-1H-benzimidazol-2-yl)carbamate] the value was less than 100 nM.
The figure for `COC(=O)Nc1nc2cc(Oc3ccc(NC(=O)Nc4cccc(Oc5ccccc5)c4)cc3)ccc2[nH]1` [Example 123, Methyl N-(5-(4-((3-phenoxyphenyl)aminocarbonylamino)phenoxy)-1H-benzimidazol-2-yl)carbamate] is 100 to 1000 nM.
For `COC(=O)Nc1nc2cc(Oc3cccc(NC(=O)Nc4cccc(I)c4)c3)ccc2[nH]1` [Example 120, Methyl N-(5-(3-((3-iodophenyl)aminocarbonylamino)phenoxy)-1H-benzimidazol-2-yl)carbamate] the value was less than 100 nM; for `COC(=O)Nc1nc2cc(Oc3cccc(NC(=O)Nc4ccc(SC(F)(F)F)cc4)c3)ccc2[nH]1` [Example 117, Methyl N-(5-(3-((4-(trifluoromethylthio)phenyl)aminocarbonylamino)phenoxy)-1H-benzimidazol-2-yl)carbamate], less than 100 nM; for `COC(=O)Nc1nc2cc(Oc3cccc(NC(=O)Nc4cccc(SC(F)(F)F)c4)c3)ccc2[nH]1` [Example 58], less than 100 nM.
Take `COC(=O)Nc1nc2cc(Sc3ccc(NC(=O)Nc4cc(C(C)(C)C)on4)cc3)ccc2[nH]1` [Example 130, Methyl N-(5-(4-((5-tert-butylisoxazole-3-yl)aminocarbonylamino)phenylthio)-1H-benzimidazol-2-yl)carbamate]: the IC50 was less than 100 nM.
